# Measured values published in paper PMC10648349, “Aromatic Diboronic Acids as Effective KPC/AmpC Inhibitors” (Molecules, 2023).
# Key:
# [1] = test system: K. pneumoniae ATCC BAA 1705 KPC-2-positive; experiment: combination disc test CDT-KPC; type: cell-based; conditions: Klebsiella pneumoniae, BAA1705; agent 0.3 mg per disc; read-out: Diameter of inhibition zone, MEM-10 disc with agent
# [2] = MTT-based viability assay; type: cell-based; conditions: human, MRC-5 human fibroblasts, 72 h, read-out: Viability of MRC-5 cells (% of viable cells ± SD)
# Protocol: MRC-5 human fibroblasts (ECACC) were cultured in MEME, Minimum Essential Medium Eagle (Merck) supplemented with 10% fetal bovine serum (Merck), 2 mM l-glutamine, antibiotics (100 U/mL penicillin, 100 μg/mL streptomycin, Merck) and 1% non-essential amino acids (Merck). Cells were grown in 75 cm^2 cell culture flasks (Sarstedt) in a humidified atmosphere of CO2/air (5/95%) at 37 °C. MTT-based viability assay was conducted as described previously. Optical densities were measured at 570 nm using a BioTek microplate reader. All measurements were carried out in three replicates, and the results were expressed as a percent of viable cells versus control cells.
# [3] = test system: P. aeruginosa MUW 700 cAmpC-positive; experiment: combination disc test CDT-AmpC; type: cell-based; conditions: Pseudomonas aeruginosa; agent 0.3 mg per disc; read-out: Diameter of inhibition zone, CAZ-30 disc with agent
# C. albicans ATCC 90028 = experiment: antifungal activity (disc-diffusion, MIC, MFC); type: cell-based; conditions: Candida albicans, ATCC90028; fluconazole by Etest
# Protocol: (§1) Direct antimicrobial activity against Gram-negative and Gram-positive bacterial strains, as well as against yeast, was examined as previously described by the disc-diffusion test, the MIC determination assay, the MBC (for bacteria), and the MFC (for yeasts) determination tests. All the above-mentioned tests were performed according to EUCAST [71, 72] and CLSI [73, 74, 75, 76, 77] recommendations. The following reference agents were used: nitrofurantoin (for Gram-negative rods), linezolid (for Gram-positive bacteria), and fluconazole (in the case of fungi). The new aromatic diboronic acids were dissolved in DMSO (Sigma, St. Louis, MO, USA). In the disc-diffusion test, the concentration of new agents was 0.4 mg per disc.
# C. tropicalis ATCC 750 = experiment: antifungal activity (disc-diffusion, MIC, MFC); type: cell-based; conditions: Candida tropicalis, ATCC750; fluconazole by Etest
# Protocol: as §1
# C. tropicalis IBA 171 = experiment: antifungal activity (disc-diffusion, MIC, MFC); type: cell-based; conditions: Candida tropicalis, IBA171; fluconazole by Etest
# Protocol: as §1
# S. cerevisiae ATCC 9763 = experiment: antifungal activity (disc-diffusion, MIC, MFC); type: cell-based; conditions: Saccharomyces cerevisiae, ATCC9763; fluconazole by Etest
# Protocol: as §1
# C. krusei ATCC 6258 = experiment: antifungal activity (disc-diffusion, MIC, MFC); type: cell-based, Candida krusei; conditions: Pichia kudriavzevii, ATCC6258; fluconazole by Etest
# Protocol: as §1
# [4] = test system: C. guilliermondii IBA 155; experiment: antifungal activity (disc-diffusion, MIC, MFC); type: cell-based, Candida guilliermondii; conditions: Meyerozyma guilliermondii, IBA155; fluconazole by Etest
# Protocol: as §1
# [5] = test system: E. coli 77 CMY-2-positive; experiment: combination disc test CDT-AmpC; type: cell-based; conditions: Escherichia coli; agent 0.3 mg per disc; read-out: Diameter of inhibition zone, CAZ-30 disc with agent
# [6] = test system: K. pneumoniae ATCC 700603 ESBL-positive; experiment: combination disc test CDT-ESBL; type: cell-based; conditions: Klebsiella pneumoniae, ATCC700603; agent 0.3 mg per disc; read-out: Diameter of inhibition zone, CAZ-30 disc with agent
# [7] = test system: C. parapsilosis ATCC 22019; experiment: antifungal activity (disc-diffusion, MIC, MFC); type: cell-based, Candida parapsilosis; conditions: Lodderomyces parapsilosis, ATCC22019; fluconazole by Etest
# Protocol: as §1
# [8] = test system: P. aeruginosa MUW 700 AmpC(+); experiment: MIC of tested agent alone, microdilution; type: cell-based; conditions: Pseudomonas aeruginosa; read-out: MIC of agent alone
# Protocol: (§2) To examine the ability of tested agents to inhibit various carbapenemases and AmpC-enzymes, their synergy with antibiotics against β-lactamase-producing strains was assessed by checkerboard microdilution assay, with slight modification. Checkerboards were prepared in microtiter plates, with seven two-fold dilutions of β-lactams (1–64 mg/L) in the rows and three two-fold dilutions of tested agents and PBA (4–16 mg/L) in the columns. Tested agents’ concentrations were limited to the concentrations at which the newest commercially available BLIs (vaborbactam, relebactam, and avibactam) are used in susceptibility testing. Plates were inoculated and incubated as in the MIC microdilution assay. Parallel, MICs of tested agents and PBA alone were determined by the microdilution assay. Following the incubation, antibiotic MICs in the presence of each agent’s concentration were determined. Moreover, for the first well without growth found in each checkerboard row and column along the growth/non-growth interface, the fractional inhibitory concentration index (FICI) was calculated using the formula below:FICI = [(MIC of antibiotic in combination)/(MIC of antibiotic alone)] + [(MIC of the tested agent in combination)/(MIC of tested agent alone)].
# E. coli 77 CMY-2(+) = experiment: MIC of tested agent alone, microdilution; type: cell-based; conditions: Escherichia coli; read-out: MIC of agent alone
# Protocol: as §2
# [9] = test system: K. pneumoniae 83 KPC-3(+), CTX-M-3(+); experiment: MIC of tested agent alone, microdilution; type: cell-based; conditions: Klebsiella pneumoniae; read-out: MIC of agent alone
# Protocol: as §2
# [10] = test system: K. pneumoniae 81 KPC-3(+); experiment: MIC of tested agent alone, microdilution; type: cell-based; conditions: Klebsiella pneumoniae; read-out: MIC of agent alone
# Protocol: as §2
# [11] = test system: K. pneumoniae ATCC BAA-1705 KPC-2(+); experiment: MIC of tested agent alone, microdilution; type: cell-based; conditions: Klebsiella pneumoniae, ATCCBAA1705; read-out: MIC of agent alone
# Protocol: as §2
# E. coli 76 KPC-2(+) = experiment: MIC of tested agent alone, microdilution; type: cell-based; conditions: Escherichia coli; read-out: MIC of agent alone
# Protocol: as §2
# B. subtilis ATCC 6633 = experiment: direct antimicrobial activity (disc-diffusion); type: cell-based; conditions: Bacillus subtilis, ATCC6633; 0.4 mg per disc, 9 mm disc (linezolid 0.03 mg, 6 mm disc); - no zone; read-out: Diameter of inhibition zone
# Protocol: as §1
# [12] = test system: S. aureus ATCC 43300 MRSA; experiment: direct antimicrobial activity (disc-diffusion, MIC, MBC); type: cell-based; conditions: Staphylococcus aureus; for zone of inhibition at 0.4 mg/disc: 0.4 mg per disc, 9 mm disc (linezolid 0.03 mg, 6 mm disc), - no zone, read-out: Diameter of inhibition zone
# Protocol: as §1
# [13] = test system: S. epidermidis ATCC 12228; experiment: as above; type: cell-based; conditions: Staphylococcus epidermidis, ATCC12228; for zone of inhibition at 0.4 mg/disc: 0.4 mg per disc, 9 mm disc (linezolid 0.03 mg, 6 mm disc), - no zone, read-out: Diameter of inhibition zone
# Protocol: as §1
# E. faecalis ATCC 29212 = experiment: as above; type: cell-based; conditions: Enterococcus faecalis, ATCC29212; for zone of inhibition at 0.4 mg/disc: 0.4 mg per disc, 9 mm disc (linezolid 0.03 mg, 6 mm disc), - no zone, read-out: Diameter of inhibition zone
# Protocol: as §1
# S. aureus ATCC 6538P = experiment: as above; type: cell-based; conditions: Staphylococcus aureus, ATCC6538P; for zone of inhibition at 0.4 mg/disc: 0.4 mg per disc, 9 mm disc (linezolid 0.03 mg, 6 mm disc), - no zone, read-out: Diameter of inhibition zone
# Protocol: as §1
# E. faecium ATCC 6057 = experiment: as above; type: cell-based; conditions: Enterococcus faecium, ATCC6057; for zone of inhibition at 0.4 mg/disc: 0.4 mg per disc, 9 mm disc (linezolid 0.03 mg, 6 mm disc), - no zone, read-out: Diameter of inhibition zone
# Protocol: as §1
MIC (C. albicans ATCC 90028) [µg/mL],MIC (C. tropicalis ATCC 750) [µg/mL],MIC (C. tropicalis IBA 171) [µg/mL],MIC (S. cerevisiae ATCC 9763) [µg/mL],MIC (C. krusei ATCC 6258) [µg/mL],MIC [4] [µg/mL],MIC [7] [µg/mL],MIC [8] [µg/mL],MIC [12] [µg/mL],MIC [13] [µg/mL],MIC (E. faecalis ATCC 29212) [µg/mL],MIC (S. aureus ATCC 6538P) [µg/mL],MIC (E. faecium ATCC 6057) [µg/mL],SMILES,zone of inhibition at 300 µg/disc [1] [mm],"viability at 72 h, 12.5 mg/L [2] [%]","viability at 72 h, 25 mg/L [2] [%]","viability at 72 h, 50 mg/L [2] [%]",zone of inhibition at 300 µg/disc [3] [mm],zone of inhibition at 300 µg/disc [5] [mm],zone of inhibition at 300 µg/disc [6] [mm],further results
100,> 400,> 400,200,50,200,> 400,> 400,400,200,200,200,200,OB(O)c1c(F)c(F)c(F)c(F)c1B(O)O [3d],6,91.3 ± 7.4,100 ± 7.7,77.7 ± 15.5,14,21,15,MIC (E. coli 77 CMY-2(+)): > 400 µg/mL; MIC [9]: > 400 µg/mL; MIC [10]: > 400 µg/mL; MIC [11]: > 400 µg/mL; MIC (E. coli 76 KPC-2(+)): > 400 µg/mL; zone of inhibition at 0.4 mg/disc (B. subtilis ATCC 6633): 12 mm; zone of inhibition at 0.4 mg/disc [12]: 18 mm; zone of inhibition at 0.4 mg/disc [13]: 21 mm; zone of inhibition at 0.4 mg/disc (E. faecalis ATCC 29212): 12 mm; zone of inhibition at 0.4 mg/disc (S. aureus ATCC 6538P): 20 mm; zone of inhibition at 0.4 mg/disc (E. faecium ATCC 6057): 16 mm
> 400,> 400,> 400,> 400,> 400,> 400,> 400,> 400,> 400,> 400,> 400,> 400,400,"OB(O)c1cc(B(O)O)cc(B(O)O)c1 [4a, benzene-1,3,5-triboronic acid]",6,102 ± 6.9,84.4 ± 6.4,87.9 ± 8.5,16,20,14,MIC (E. coli 77 CMY-2(+)): > 400 µg/mL; MIC [9]: > 400 µg/mL; MIC [10]: > 400 µg/mL; MIC [11]: > 400 µg/mL; MIC (E. coli 76 KPC-2(+)): > 400 µg/mL
–,–,–,–,–,–,–,–,2,1,2,1,2,"CC(=O)NC[C@H]1CN(c2ccc(N3CCOCC3)c(F)c2)C(=O)O1 [LIN, linezolid, reference compound]",–,–,–,–,–,–,–,zone of inhibition at 0.4 mg/disc (B. subtilis ATCC 6633): 30 mm; MBC [12]: > 128 µg/mL; zone of inhibition at 0.4 mg/disc [12]: 25 mm; MBC [13]: > 128 µg/mL; zone of inhibition at 0.4 mg/disc [13]: 26 mm; MBC (E. faecalis ATCC 29212): > 128 µg/mL; zone of inhibition at 0.4 mg/disc (E. faecalis ATCC 29212): 15 mm; MBC (S. aureus ATCC 6538P): > 128 µg/mL; zone of inhibition at 0.4 mg/disc (S. aureus ATCC 6538P): 25 mm; MBC (E. faecium ATCC 6057): > 128 µg/mL; zone of inhibition at 0.4 mg/disc (E. faecium ATCC 6057): 14 mm
